In US20100267561A1, “HERBICIDAL PYRIDAZINONE DERIVATIVES” (priority 2007, published 2010):

Tests used:
Format in all cases: in vivo
canola (Brassica rapa) = assay: Test C pre-/postemergence plant response
Outline: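 Seeds are planted and sprayed preemergence, while established plants at the 1- to 4-leaf stage (2 to 18 cm) receive postemergence sprays of the same surfactant-containing, non-phytotoxic solvent formulation. After 15 to 25 days under controlled conditions, injury is scored visually from 0 (no effect) to 100 (complete control).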

[1] = system: annual bluegrass (Poa annua); assay: Test E pre-/postemergence plant response; details: scale 0 to 100
Outline: (§1)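 Visual rating 0–100 vs untreated controls (0 = no effect, 100 = complete control) after 14–21 d greenhouse. Pre- and postemergence treatments; compound in non-phytotoxic solvent mix + surfactant. Post plants 2–18 cm, 1- to 4-leaf stage.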

[2] = system: pitted morningglory (Ipomoea lacunosa); assay: Test E pre-/postemergence plant response; details: scale 0 to 100
Outline: as §1

[3] = system: southern (S.) sandbur (Cenchrus echinatus); assay: Test E pre-/postemergence plant response; details: scale 0 to 100
Outline: as §1

[4] = system: green foxtail (Setaria viridis); assay: Test E pre-/postemergence plant response; details: scale 0 to 100
Outline: as §1

[5] = system: common groundsel (Senecio vulgaris); assay: Test E pre-/postemergence plant response; details: scale 0 to 100
Outline: as §1

[6] = system: purple nutsedge (Cyperus rotundus); assay: Test E pre-/postemergence plant response; details: scale 0 to 100
Outline: as §1

[7] = system: barnyardgrass (Echinochloa crus-galli); assay: Test E pre-/postemergence plant response; details: scale 0 to 100
Outline: as §1

[8] = system: large crabgrass (Digitaria sanguinalis); assay: Test E pre-/postemergence plant response; details: scale 0 to 100
Outline: as §1

[9] = system: goosegrass (Eleusine indica); assay: Test E pre-/postemergence plant response; details: scale 0 to 100
Outline: as §1

[10] = system: guineagrass (Panicum maximum); assay: Test E pre-/postemergence plant response; details: scale 0 to 100
Outline: as §1

[11] = system: common mallow (Malva sylvestris); assay: Test E pre-/postemergence plant response; details: scale 0 to 100
Outline: as §1

CCCc1cc(-c2ccc(Cl)cc2)nn1-c1c(O)cnn(C)c1=O [Compound 43]
Plant response rating, Canola (canola (Brassica rapa); Postemergence, 8 g ai/ha, scale 0 to 100, 0 no effect, 100 complete control): 0
Plant response rating, Canola (canola (Brassica rapa); Postemergence, 16 g ai/ha, scale 0 to 100, 0 no effect, 100 complete control): 0
Plant response rating, Canola (canola (Brassica rapa); Postemergence, 31 g ai/ha, scale 0 to 100, 0 no effect, 100 complete control): 0
Plant response rating, Canola (canola (Brassica rapa); Postemergence, 62 g ai/ha, scale 0 to 100, 0 no effect, 100 complete control): 0
Plant response rating, Canola (canola (Brassica rapa); Preemergence, 8 g ai/ha, scale 0 to 100 (0 no effect, 100 complete control)): 0
Plant response rating, Canola (canola (Brassica rapa); Preemergence, 31 g ai/ha, scale 0 to 100 (0 no effect, 100 complete control)): 0
Plant response rating, Canola (canola (Brassica rapa); Preemergence, 62 g ai/ha, scale 0 to 100, 0 no effect, 100 complete control): 0
Plant response rating, Bluegrass ([1]; 16 g ai/ha, Preemergence): 0
Plant response rating, Bluegrass ([1]; 31 g ai/ha, Preemergence): 0
Plant response rating, Bluegrass ([1]; 62 g ai/ha, Preemergence): 0
Plant response rating, Bluegrass ([1]; Postemergence, 8 g ai/ha): 0
Plant response rating, Bluegrass ([1]; Postemergence, 16 g ai/ha): 0
Plant response rating, Bluegrass ([1]; Postemergence, 31 g ai/ha): 0
Plant response rating, Bluegrass ([1]; Postemergence, 62 g ai/ha): 0
Plant response rating, Morningglory ([2]; 16 g ai/ha, Preemergence): 0
Plant response rating, Morningglory ([2]; 31 g ai/ha, Preemergence): 20
Plant response rating, Morningglory ([2]; 62 g ai/ha, Preemergence): 30
Plant response rating, Morningglory ([2]; Postemergence, 8 g ai/ha): 0
Plant response rating, Morningglory ([2]; Postemergence, 16 g ai/ha): 0
Plant response rating, Morningglory ([2]; Postemergence, 31 g ai/ha): 0
Plant response rating, Morningglory ([2]; Postemergence, 62 g ai/ha): 0
Plant response rating, Sandbur, S. ([3]; 16 g ai/ha, Preemergence): 60
Plant response rating, Sandbur, S. ([3]; 31 g ai/ha, Preemergence): 75
Plant response rating, Sandbur, S. ([3]; 62 g ai/ha, Preemergence): 98
Plant response rating, Sandbur, S. ([3]; Postemergence, 8 g ai/ha): 80
Plant response rating, Sandbur, S. ([3]; Postemergence, 16 g ai/ha): 95
Plant response rating, Sandbur, S. ([3]; Postemergence, 31 g ai/ha): 98
Plant response rating, Sandbur, S. ([3]; Postemergence, 62 g ai/ha): 100
Plant response rating, Foxtail, Green ([4]; 16 g ai/ha, Preemergence): 25
Plant response rating, Foxtail, Green ([4]; 31 g ai/ha, Preemergence): 85
Plant response rating, Foxtail, Green ([4]; 62 g ai/ha, Preemergence): 100
Plant response rating, Foxtail, Green ([4]; Postemergence, 8 g ai/ha): 75
Plant response rating, Foxtail, Green ([4]; Postemergence, 16 g ai/ha): 80
Plant response rating, Foxtail, Green ([4]; Postemergence, 31 g ai/ha): 80
Plant response rating, Foxtail, Green ([4]; Postemergence, 62 g ai/ha): 98
Plant response rating, Groundsel ([5]; 16 g ai/ha, Preemergence): 0
Plant response rating, Groundsel ([5]; 31 g ai/ha, Preemergence): 0
Plant response rating, Groundsel ([5]; 62 g ai/ha, Preemergence): 0
Plant response rating, Groundsel ([5]; Postemergence, 8 g ai/ha): 0
Plant response rating, Groundsel ([5]; Postemergence, 16 g ai/ha): 0
Plant response rating, Groundsel ([5]; Postemergence, 31 g ai/ha): 0
Plant response rating, Groundsel ([5]; Postemergence, 62 g ai/ha): 0
Plant response rating, Nutsedge, Purple ([6]; 16 g ai/ha, Preemergence): 0
Plant response rating, Nutsedge, Purple ([6]; 31 g ai/ha, Preemergence): 0
Plant response rating, Nutsedge, Purple ([6]; 62 g ai/ha, Preemergence): 75
Plant response rating, Nutsedge, Purple ([6]; Postemergence, 8 g ai/ha): 0
Plant response rating, Nutsedge, Purple ([6]; Postemergence, 16 g ai/ha): 0
Plant response rating, Nutsedge, Purple ([6]; Postemergence, 31 g ai/ha): 0
Plant response rating, Nutsedge, Purple ([6]; Postemergence, 62 g ai/ha): 0
Plant response rating, Barnyardgrass ([7]; 16 g ai/ha, Preemergence): 50
Plant response rating, Barnyardgrass ([7]; 31 g ai/ha, Preemergence): 100
Plant response rating, Barnyardgrass ([7]; 62 g ai/ha, Preemergence): 100
Plant response rating, Barnyardgrass ([7]; Postemergence, 8 g ai/ha): 100
Plant response rating, Barnyardgrass ([7]; Postemergence, 16 g ai/ha): 100
Plant response rating, Barnyardgrass ([7]; Postemergence, 31 g ai/ha): 100
Plant response rating, Barnyardgrass ([7]; Postemergence, 62 g ai/ha): 100
Plant response rating, Crabgrass, Large ([8]; 16 g ai/ha, Preemergence): 0
Plant response rating, Crabgrass, Large ([8]; 31 g ai/ha, Preemergence): 70
Plant response rating, Crabgrass, Large ([8]; 62 g ai/ha, Preemergence): 80
Plant response rating, Crabgrass, Large ([8]; Postemergence, 8 g ai/ha): 30
Plant response rating, Crabgrass, Large ([8]; Postemergence, 16 g ai/ha): 60
Plant response rating, Crabgrass, Large ([8]; Postemergence, 31 g ai/ha): 80
Plant response rating, Crabgrass, Large ([8]; Postemergence, 62 g ai/ha): 80
Plant response rating, Goosegrass ([9]; 16 g ai/ha, Preemergence): 65
Plant response rating, Goosegrass ([9]; 31 g ai/ha, Preemergence): 95
Plant response rating, Goosegrass ([9]; 62 g ai/ha, Preemergence): 98
Plant response rating, Goosegrass ([9]; Postemergence, 8 g ai/ha): 20
Plant response rating, Goosegrass ([9]; Postemergence, 16 g ai/ha): 75
Plant response rating, Goosegrass ([9]; Postemergence, 31 g ai/ha): 75
Plant response rating, Goosegrass ([9]; Postemergence, 62 g ai/ha): 90
Plant response rating, Guineagrass ([10]; 16 g ai/ha, Preemergence): 95
Plant response rating, Guineagrass ([10]; 31 g ai/ha, Preemergence): 100
Plant response rating, Guineagrass ([10]; 62 g ai/ha, Preemergence): 100
Plant response rating, Guineagrass ([10]; Postemergence, 8 g ai/ha): 100
Plant response rating, Guineagrass ([10]; Postemergence, 16 g ai/ha): 100
Plant response rating, Guineagrass ([10]; Postemergence, 31 g ai/ha): 100
Plant response rating, Guineagrass ([10]; Postemergence, 62 g ai/ha): 100
Plant response rating, Mallow ([11]; 16 g ai/ha, Preemergence): 0
Plant response rating, Mallow ([11]; 31 g ai/ha, Preemergence): 0
Plant response rating, Mallow ([11]; 62 g ai/ha, Preemergence): 0
Plant response rating, Mallow ([11]; Postemergence, 8 g ai/ha): 0
Plant response rating, Mallow ([11]; Postemergence, 16 g ai/ha): 0
Plant response rating, Mallow ([11]; Postemergence, 31 g ai/ha): 0
Plant response rating, Mallow ([11]; Postemergence, 62 g ai/ha): 0
